Test [1] addresses intracellular GCN2 (phosphorylation of the GCN2 substrate eIF2α) (Homo sapiens, UniProt Q9P2K8). Description: GCN2 cellular inhibition assay (AlphaScreen SureFire P-eIF2α Ser51, borrelidin-treated U2OS cells). The test is classed as cell-based. The settings on record: biomarker assay, phosphorylated eIF2α Ser51 in borrelidin-treated U2OS cells. The method, boiled down:
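Phospho-eIF2α (Ser51) in lysates was quantified by AlphaScreen SureFire after a 1 h, 37 °C treatment of U2OS cells with 10 μM borrelidin and compound at 4-fold dilutions starting from 40 μM final. Inhibition expressed in percent against wells stimulated by borrelidin alone.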
A general note: Bead proximity is the source of the signal in Alpha formats.

A further test has as its target GCN2 kinase (Homo sapiens, UniProt Q9P2K8). Put plainly: GCN2 enzyme inhibition assay (Transcreener ADP2 fluorescence polarization). The test is classed as biochemical. Particulars: 280 μM ATP. The method, boiled down: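 FP detection of ADP (antibody plus Alexa633 tracer) after a 1 h, 25 °C kinase reaction. Enzyme 4 nM, ATP 280 μM, (RS)7 peptide 200 μM, Tris pH 7.5 buffer with MgCl2 and DTT. Percent inhibition fitted by non-linear tight-binding algorithm for IC50 and Ki(app).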

The mark [2] stands for this setting: compounds of Formula II, 4 nM GCN2 kinase.
Setting [3] is: Enzyme activity for compounds of Formula IV, Ki(app), 25° C.

The values that follow come from US10988477B2 (Merck Patent GmbH, priority 2018, dated 2021).

Chain of GCN2 kinase (Q9P2K8 whole entry): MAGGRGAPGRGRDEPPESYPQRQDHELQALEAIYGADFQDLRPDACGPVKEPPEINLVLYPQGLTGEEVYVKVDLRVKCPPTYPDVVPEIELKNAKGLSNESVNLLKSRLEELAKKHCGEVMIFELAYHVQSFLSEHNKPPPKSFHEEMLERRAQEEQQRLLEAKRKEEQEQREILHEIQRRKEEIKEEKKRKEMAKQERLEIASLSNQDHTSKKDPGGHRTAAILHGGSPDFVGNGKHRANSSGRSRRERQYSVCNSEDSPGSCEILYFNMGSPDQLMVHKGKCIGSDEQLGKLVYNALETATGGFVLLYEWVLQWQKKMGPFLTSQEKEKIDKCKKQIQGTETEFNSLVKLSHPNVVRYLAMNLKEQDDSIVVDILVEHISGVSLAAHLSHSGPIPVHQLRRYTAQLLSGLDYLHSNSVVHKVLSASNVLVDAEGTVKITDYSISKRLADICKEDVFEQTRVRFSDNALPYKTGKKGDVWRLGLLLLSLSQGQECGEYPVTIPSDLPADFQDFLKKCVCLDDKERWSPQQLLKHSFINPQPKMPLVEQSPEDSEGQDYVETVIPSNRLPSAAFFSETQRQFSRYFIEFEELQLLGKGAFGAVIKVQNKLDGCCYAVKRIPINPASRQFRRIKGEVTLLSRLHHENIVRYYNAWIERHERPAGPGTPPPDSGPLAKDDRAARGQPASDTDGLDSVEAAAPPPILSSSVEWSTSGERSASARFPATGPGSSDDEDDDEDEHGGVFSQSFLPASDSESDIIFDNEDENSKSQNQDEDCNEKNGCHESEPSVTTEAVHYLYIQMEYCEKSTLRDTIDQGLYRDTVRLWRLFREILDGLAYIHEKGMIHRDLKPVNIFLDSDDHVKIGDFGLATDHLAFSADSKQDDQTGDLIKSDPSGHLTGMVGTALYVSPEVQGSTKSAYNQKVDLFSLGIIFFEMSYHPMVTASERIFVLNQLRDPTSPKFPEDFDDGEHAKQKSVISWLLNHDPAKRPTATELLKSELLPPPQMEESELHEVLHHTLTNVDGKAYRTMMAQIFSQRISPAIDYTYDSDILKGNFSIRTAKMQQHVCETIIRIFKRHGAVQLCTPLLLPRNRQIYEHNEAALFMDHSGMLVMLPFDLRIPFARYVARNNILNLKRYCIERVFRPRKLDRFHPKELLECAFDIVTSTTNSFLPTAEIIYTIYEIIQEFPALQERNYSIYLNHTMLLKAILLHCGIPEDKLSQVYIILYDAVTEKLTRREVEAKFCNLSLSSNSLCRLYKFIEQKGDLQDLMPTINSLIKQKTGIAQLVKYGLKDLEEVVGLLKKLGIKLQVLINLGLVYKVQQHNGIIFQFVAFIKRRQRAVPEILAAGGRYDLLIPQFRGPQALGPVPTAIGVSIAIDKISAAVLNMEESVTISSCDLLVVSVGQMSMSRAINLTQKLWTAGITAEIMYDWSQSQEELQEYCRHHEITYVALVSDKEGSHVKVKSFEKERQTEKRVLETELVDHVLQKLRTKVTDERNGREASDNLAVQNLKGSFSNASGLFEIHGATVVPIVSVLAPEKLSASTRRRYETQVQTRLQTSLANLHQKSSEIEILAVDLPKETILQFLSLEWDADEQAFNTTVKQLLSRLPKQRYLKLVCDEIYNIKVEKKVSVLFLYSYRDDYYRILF
Chain of intracellular GCN2 (phosphorylation of the GCN2 substrate eIF2α) (Q9P2K8 whole entry): as above

For `CC1C(CNS(C)(=O)=O)C(F)(F)C(C)CN1c1cc(-c2cnc3ccc(C(F)F)nn23)ncn1` (single isomer, unassigned) [II-471, N-((1-(6-(6-(Difluoromethyl)imidazo[1,2-b]pyridazin-3-yl)pyrimidin-4-yl)-4,4-difluoro-2,5-dimethylpiperidin-3-yl)methyl)methanesulfonamide], the IC50 (in general, the concentration that inhibits the measured activity by half) in test [1] (compounds of Formula II) is greater than 5000 nM. Also, the Ki on GCN2 kinase (setting [2]) fell in the range of 10 to 1000 nM.
Regarding `C[C@H]1[C@@H](CNS(C)(=O)=O)C(F)(F)[C@@H](C)CN1c1cc(-c2cnc3ccc(C(F)F)nn23)ncn1` (single isomer, unassigned) [II-472], in test [1] (compounds of Formula II), the IC50 was less than 500 nM. On GCN2 kinase (setting [2]), this compound came in with a Ki of less than 10 nM.
Turning to `CC1C(CNS(C)(=O)=O)N(C2CC2)CCN1c1cc(-c2cnc3ccc(C(F)F)nn23)ncn1` (single isomer, unassigned) [II-478, N-((1-Cyclopropyl-4-(6-(6-(difluoromethyl)imidazo[1,2-b]pyridazin-3-yl)pyrimidin-4-yl)-3-methylpiperazin-2-yl)methyl)methanesulfonamide], the IC50 in test [1] (compounds of Formula II) fell in the range of 500 to 5000 nM. At GCN2 kinase (setting [2]), this compound gave a Ki of 10 to 1000 nM.
The compound `CC1C(CNS(C)(=O)=O)N(C2CC2)CCN1c1cc(-c2cnc3ccc(C(F)F)nn23)ncn1` (single isomer, unassigned) [II-479, N-((1-Cyclopropyl-4-(6-(6-(difluoromethyl)imidazo[1,2-b]pyridazin-3-yl)pyrimidin-4-yl)-3-methylpiperazin-2-yl)methyl)methanesulfonamide] yielded an IC50 in test [1] (compounds of Formula II) of less than 500 nM. On GCN2 kinase (setting [2]), this compound displayed a Ki of less than 10 nM.
In the case of `CC1C(CNS(C)(=O)=O)OC(C)(C)CN1c1cc(-c2cnc3ccc(C(F)F)nn23)ncn1` (single isomer, unassigned) [II-484, N-((4-(6-(6-(Difluoromethyl)imidazo[1,2-b]pyridazin-3-yl)pyrimidin-4-yl)-3,6,6-trimethylmorpholin-2-yl)methyl)methanesulfonamide], the IC50 in test [1] (compounds of Formula II) was in the range of 500 to 5000 nM. This compound also had a Ki on GCN2 kinase (setting [2]) of 10 to 1000 nM.
In the case of `CC1C(CNS(C)(=O)=O)OC(C)(C)CN1c1cc(-c2cnc3ccc(C(F)F)nn23)ncn1` (single isomer, unassigned) [II-489, N-((4-(6-(6-(Difluoromethyl)imidazo[1,2-b]pyridazin-3-yl)pyrimidin-4-yl)-3,6,6-trimethylmorpholin-2-yl)methyl)methanesulfonamide], the IC50 in test [1] (compounds of Formula II) is greater than 5000 nM. The Ki at GCN2 kinase (setting [2]) was greater than 1000 nM.
As for `C[C@H]1[C@@H](CNS(C)(=O)=O)OC(C)(C)CN1c1cc(-c2cnc3ccc(C(F)F)nn23)ncn1` (single isomer, unassigned) [II-490], in test [1] (compounds of Formula II), the IC50 is less than 500 nM. Further, the Ki on GCN2 kinase (setting [2]) is less than 10 nM.
The like results for `CS(C)(=O)=N[C@H]1CCCN(c2cc(-c3cnc4ccc(C(F)F)nn34)ncn2)C1` (single isomer, unassigned) [II-502] were, in that order, less than 500 nM and 10 to 1000 nM.
Consider `CS(C)(=O)=NC1CCCN(c2cc(-c3cnc4ccc(C(F)F)nn34)ncn2)C1` (single isomer, unassigned) [II-503, ((1-(6-(6-(Difluoromethyl)imidazo[1,2-b]pyridazin-3-yl)pyrimidin-4-yl)piperidin-3-yl)imino)dimethyl-λ^6-sulfanone], for which the IC50 in test [1] (compounds of Formula II) was 500 to 5000 nM. At GCN2 kinase (setting [2]), this compound showed a Ki of 10 to 1000 nM.
`C[C@H](NS(C)(=O)=O)[C@@H]1CN(c2cc(-c3cnc4ccc(C(F)F)nn34)ncn2)CCO1` (single isomer, unassigned) [II-509] showed an IC50 in test [1] (compounds of Formula II) of less than 500 nM. For the same compound, at GCN2 kinase (setting [2]), the Ki is less than 10 nM.
On the same counts, the results for `CC(NS(C)(=O)=O)[C@@H]1CN(c2cc(-c3cnc4ccc(C(F)F)nn34)ncn2)CCO1` (single isomer, unassigned) [II-510] are 500 to 5000 nM and 10 to 1000 nM.
In the case of `CS(=O)(=O)C1CCCN(c2cc(-c3cnc4ccc(C(F)F)nn34)ncn2)C1` (single isomer, unassigned) [II-529, 6-(Difluoromethyl)-3-(6-(3-(methylsulfonyl)piperidin-1-yl)pyrimidin-4-yl)imidazo[1,2-b]pyridazine], the IC50 in test [1] (compounds of Formula II) lay in the range of 500 to 5000 nM. The Ki on GCN2 kinase (setting [2]) was 10 to 1000 nM.
In test [1] (compounds of Formula II), `CC1CC(N=S(C)(C)=O)CN(c2cc(-c3cnc4ccc(C(F)F)nn34)ncn2)C1` (single isomer, unassigned) [II-540, ((1-(6-(6-(Difluoromethyl)imidazo[1,2-b]pyridazin-3-yl)pyrimidin-4-yl)-5-methylpiperidin-3-yl)imino)dimethyl-λ^6-sulfanone] registered an IC50 of 500 to 5000 nM. For the same compound, the Ki at GCN2 kinase (setting [2]) was in the range of 10 to 1000 nM.
The like results for `C[C@@H]1CC(N=S(C)(C)=O)CN(c2cc(-c3cnc4ccc(C(F)F)nn34)ncn2)C1` (single isomer, unassigned) [II-541] were, in that order, less than 500 nM and less than 10 nM.
On the same counts, the results for `CCN1CCN(c2cc(-c3cnc4ccc(C(F)F)nn34)ncn2)C(C)C1CNS(C)(=O)=O` (single isomer, unassigned) [II-542, N-((4-(6-(6-(Difluoromethyl)imidazo[1,2-b]pyridazin-3-yl)pyrimidin-4-yl)-1-ethyl-3-methylpiperazin-2-yl)methyl)methanesulfonamide] are less than 500 nM and less than 10 nM.
With `CCN1CCN(c2cc(-c3cnc4ccc(C(F)F)nn34)ncn2)C(C)C1CNS(C)(=O)=O` (single isomer, unassigned) [II-543, N-((4-(6-(6-(difluoromethyl)imidazo[1,2-b]pyridazin-3-yl)pyrimidin-4-yl)-1-ethyl-3-methylpiperazin-2-yl)methyl)methanesulfonamide], the IC50 in test [1] (compounds of Formula II) fell in the range of 500 to 5000 nM. This compound registered a Ki at GCN2 kinase (setting [2]) of 10 to 1000 nM.
`CC1CC(CNS(C)(=O)=O)C(C)N(c2cc(-c3cnc4ccc(C(F)F)nn34)ncn2)C1` (single isomer, unassigned) [II-545, N-((1-(6-(6-(Difluoromethyl)imidazo[1,2-b]pyridazin-3-yl)pyrimidin-4-yl)-2,5-dimethylpiperidin-3-yl)methyl)methanesulfonamide] showed an IC50 in test [1] (compounds of Formula II) of 500 to 5000 nM. Besides, at GCN2 kinase (setting [2]), the Ki lay in the range of 10 to 1000 nM.
`CC1CC(CNS(C)(=O)=O)C(C)N(c2cc(-c3cnc4ccc(C(F)F)nn34)ncn2)C1` (single isomer, unassigned) [II-546, N-((1-(6-(6-(Difluoromethyl)imidazo[1,2-b]pyridazin-3-yl)pyrimidin-4-yl)-2,5-dimethylpiperidin-3-yl)methyl)methanesulfonamide] displayed an IC50 in test [1] (compounds of Formula II) of less than 500 nM. This compound returned a Ki at GCN2 kinase (setting [2]) of less than 10 nM.
The like results for `C[C@H]1[C@@H](N=S(C)(C)=O)CCCN1c1cc(-c2cnc3ccc(C(F)F)nn23)ncn1` (single isomer, unassigned) [II-593] were, in that order, less than 500 nM and less than 10 nM.
`C[C@@H]1C[C@H](N=S(C)(C)=O)[C@H](C)N(c2cc(-c3cnc4ccc(C(F)F)nn34)ncn2)C1` (single isomer, unassigned) [II-631] gave an IC50 in test [1] (compounds of Formula II) of less than 500 nM. On GCN2 kinase (setting [2]), this compound showed a Ki of less than 10 nM.
For the compound `CCC1CC(N=S(C)(C)=O)CN(c2cc(-c3cnc4ccc(C(F)F)nn34)ncn2)C1` (single isomer, unassigned) [II-650, ((1-(6-(6-(Difluoromethyl)imidazo[1,2-b]pyridazin-3-yl)pyrimidin-4-yl)-5-ethylpiperidin-3-yl)imino)dimethyl-λ^6-sulfanone], the IC50 in test [1] (compounds of Formula II) is less than 500 nM. Further, the Ki on GCN2 kinase (setting [2]) was less than 10 nM.
In test [1] (compounds of Formula II), `CC1CN(c2cc(-c3cnc4ccc(C(F)F)nn34)ncn2)C(C)C(c2cn[nH]c2)N1` (single isomer, unassigned) [II-652, 6-(Difluoromethyl)-3-(6-(2,5-dimethyl-3-(1H-pyrazol-4-yl)piperazin-1-yl)pyrimidin-4-yl)imidazo[1,2-b]pyridazine] displayed an IC50 of 500 to 5000 nM. On GCN2 kinase (setting [2]), this compound had a Ki of 10 to 1000 nM.
On to `CC1CC(C(N)=O)C(C)N(c2cc(-c3cnc4ccc(C(F)(F)F)nn34)ncn2)C1` (single isomer, unassigned) [II-717, 2,5-Dimethyl-1-[6-[6-(trifluoromethyl)imidazo[1,2-b]pyridazin-3-yl]pyrimidin-4-yl]piperidine-3-carboxamide], for which, in test [1] (compounds of Formula II), the IC50 is less than 500 nM. The compound further showed a Ki at GCN2 kinase (setting [2]) of less than 10 nM.
The like results for `CC1CC(N=S(C)(C)=O)CN(c2cc(-c3cnc4ccc(C(F)F)nn34)c(F)cn2)C1` (single isomer, unassigned) [II-723, ((1-(4-(6-(Difluoromethyl)imidazo[1,2-b]pyridazin-3-yl)-5-fluoropyridin-2-yl)-5-methylpiperidin-3-yl)imino)dimethyl-λ^6-sulfanone] were, in that order, 500 to 5000 nM and 10 to 1000 nM.
The compound `FC(F)(F)c1cn2c(-c3nccc(N4CCOC(c5cn[nH]c5)C4)n3)cnc2cn1` (single isomer, unassigned) [IV-7, 2-(1H-Pyrazol-4-yl)-4-(2-(6-(trifluoromethyl)imidazo[1,2-a]pyrazin-3-yl)pyrimidin-4-yl)morpholine] displayed an IC50 in test [1] (compounds of Formula IV) of 500 to 5000 nM. Further, the Ki at GCN2 kinase (setting [3]) lay within 10 to 100 nM.
In turn, `FC(F)(F)c1cn2c(-c3nccc(N4CCOC(c5cn[nH]c5)C4)n3)cnc2cn1` (single isomer, unassigned) [IV-8, 2-(1H-Pyrazol-4-yl)-4-(2-(6-(trifluoromethyl)imidazo[1,2-a]pyrazin-3-yl)pyrimidin-4-yl)morpholine] gave a half-maximal inhibitory concentration (IC50) in test [1] (compounds of Formula IV) of 500 to 5000 nM. At GCN2 kinase (setting [3]), the Ki was less than 10 nM.
With `CC1C(c2cn[nH]c2)OCCN1c1ccnc(-c2cnc3cnc(Cl)cn23)n1` (single isomer, unassigned) [IV-9, 4-(2-(6-Chloroimidazo[1,2-a]pyrazin-3-yl)pyrimidin-4-yl)-3-methyl-2-(1H-pyrazol-4-yl)morpholine], in test [1] (compounds of Formula IV), the IC50 was less than 500 nM. The compound further had a Ki on GCN2 kinase (setting [3]) of less than 10 nM.
